Here are results for 26 molecules from US20240409557A1, “5,6-FUSED AND 6,6-FUSED BICYCLIC ALCOHOLS AND ETHERS AND COMPOSITIONS FOR USE AS 15-PROSTAGLANDIN DEHYDROGENASE MODULATORS” (AMGEN INC., priority 2023, published 2024).

The target in assay [1] is T1, human recombinant 15-PGDH (Homo sapiens, UniProt P15428).
T1 sequence (P15428 1-266): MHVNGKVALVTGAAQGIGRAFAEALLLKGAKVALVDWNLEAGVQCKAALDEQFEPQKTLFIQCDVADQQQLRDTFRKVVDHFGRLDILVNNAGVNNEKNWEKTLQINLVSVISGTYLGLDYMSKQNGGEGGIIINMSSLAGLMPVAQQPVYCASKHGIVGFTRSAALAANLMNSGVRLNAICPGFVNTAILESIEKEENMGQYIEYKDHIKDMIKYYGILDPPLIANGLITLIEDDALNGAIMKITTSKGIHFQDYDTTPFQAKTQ
The experiment in a line: Recombinant 15-PGDH enzymatic inhibition assay (PGDH-Lumi, NADH signal). Format: biochemical. The following applies: recombinant 15-PGDH; 15 min pre-incubation, 60 min reaction with PGE2 and NAD+, NADH signal. The gist of the method:
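Recombinant 15-PGDH pre-incubated 15 min at room temperature with compound (22 concentrations, 2-fold dilutions) in 50 mM Tris pH 7.5, 0.01% Tween-20, […].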

In another assay the target is T2, 15-PGDH in A549 cells (Homo sapiens, UniProt P15428).
T2 construct: endogenous in cells; host or cells: A549
T2 sequence (P15428 1-266): T1 sequence (P15428 1-266)
As to the kind of experiment: A549 cellular 15-PGDH assay (PGE2 accumulation, HTRF). Format: cell-based. The following applies: interleukin-stimulated, inhibitor 24 hrs, PGE2 by competitive HTRF, read-out: A549 Cell Assay IC50. The method in brief: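 IL-13-stimulated A549 lung carcinoma cells released PGE2, which was measured in supernatants by competitive HTRF with a Eu-cryptate anti-PGE2 antibody and labelled PGE2. Signal falls as PGE2 rises. IC50 values were derived from the binding data.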
(In general: TR-FRET usually uses a lanthanide donor and a delayed reading to cut background.)

Each structure is given as a SMILES string.

On to `Cn1cc2cc(-c3cc(-c4ccnn4C)c4cc(C(C)(O)C5CCC5)sc4n3)cnc2n1` (stereo not shown) [Compound C23, 1-cyclobutyl-1-(6-(2-methyl-2H-pyrazolo[3,4-b]pyridin-5-yl)-4-(1-methyl-1H-pyrazol-5-yl)thieno[2,3-b]pyridin-2-yl)ethanol], for which the 50% inhibitory concentration (IC50) turned out to be 0.543 nM in assay [1] and 4.77 nM on 15-PGDH in A549 cells.

Consider `CCC(O)c1cc2c(C3CC3)cc(-c3cnc4nn(C)cc4c3)nc2s1` (stereo not shown) [Compound B13, 1-(4-cyclopropyl-6-(2-methyl-2H-pyrazolo[3,4-b]pyridin-5-yl)thieno[2,3-b]pyridin-2-yl)-1-propanol], for which the values for the IC50 (in assay [1]; on 15-PGDH in A549 cells) were 0.901 nM and 4.19 nM, respectively.

For `Cn1cc2cc(-c3cnc4cc([C@@H](O)C5CC(F)(F)C5)sc4c3)cnc2n1` (single isomer, unassigned) [Compound B78S], the concentration for half-maximal inhibition (IC50) in assay [1] was 896 nM; at 15-PGDH in A549 cells, 57.1 nM.

For `[2H][C@](O)(c1cc2ccc(-c3cnc4nn(C)cc4c3)nc2s1)C1CCOCC1` (single isomer, unassigned) [Compound B66R], the 50% inhibitory concentration (IC50) in assay [1] is 0.396 nM; at 15-PGDH in A549 cells, 0.303 nM.

Regarding `Cn1cc2cc(-c3ccc4nc([C@@H](O)C5CC(F)(F)C5)sc4n3)cnc2n1` (single isomer, unassigned) [Compound B72S], the IC50 in assay [1] is 9.58 nM; at 15-PGDH in A549 cells it was 5.27 nM.

`Cn1cc2cc(-c3ccc4c(Cl)c(C5(O)CC(C)(C)C5)sc4n3)cnc2n1` [Compound C73, 1-(3-chloro-6-(2-methyl-2H-pyrazolo[3,4-b]pyridin-5-yl)thieno[2,3-b]pyridin-2-yl)-3,3-dimethylcyclobutanol]: the half-maximal inhibitory concentration (IC50) amounted to 2.44 nM in assay [1] and 1.26 nM at 15-PGDH in A549 cells.

For `Cn1cc2cc(-c3ccc4cc(C(O)C5CCOCC5)sc4n3)cnc2n1` (stereo not shown) [Compound B15, (6-(2-methyl-2H-pyrazolo[3,4-b]pyridin-5-yl)thieno[2,3-b]pyridin-2-yl)(tetrahydro-2H-pyran-4-yl)methanol], the values for the half-maximal inhibitory concentration (IC50) (in assay [1]; on 15-PGDH in A549 cells) were 0.701 nM and 0.957 nM, respectively.

As for `Cn1cc2cc(-c3ccc4sc([C@]5(O)C[C@@H](C(F)(F)F)C5)cc4n3)cnc2n1` [Compound C86C, cis-1-(5-(2-methyl-2H-pyrazolo[3,4-b]pyridin-5-yl)thieno[3,2-b]pyridin-2-yl)-3-(trifluoromethyl)cyclobutanol], the half-inhibitory concentration (IC50) in assay [1] was found to be 1.52 nM; on 15-PGDH in A549 cells, 4.12 nM.

Consider `Cn1cc2cc(-c3ccc4cc(C5(O)CC(F)(F)C5)sc4c3)cnc2n1` [Compound C48, 3,3-difluoro-1-(6-(2-methyl-2H-pyrazolo[3,4-b]pyridin-5-yl)-1-benzothiophen-2-yl)cyclobutanol], for which the figures for the concentration for half-maximal inhibition (IC50) (in assay [1]; on 15-PGDH in A549 cells) were 27.7 nM and 7.36 nM, respectively.

Turning to `Cc1c2ccc(-c3cnc4nn(C)cc4c3)nc2sc1[C@]1(O)C[C@@H](C(F)F)C1` [Compound C83C, cis-3-(difluoromethyl)-1-(3-methyl-6-(2-methyl-2H-pyrazolo[3,4-b]pyridin-5-yl)thieno[2,3-b]pyridin-2-yl)cyclobutanol], the IC50 in assay [1] amounted to 5.33 nM; on 15-PGDH in A549 cells, 12.3 nM.

As to `Cn1cc2cc(-c3ccc4cc(C5(O)CCC5)sc4n3)cnc2n1` [Compound C21, 1-(6-(2-methyl-2H-pyrazolo[3,4-b]pyridin-5-yl)thieno[2,3-b]pyridin-2-yl)cyclobutanol], the half-inhibitory concentration (IC50) in assay [1] turned out to be 1.76 nM; on 15-PGDH in A549 cells it was 18.9 nM.

Regarding `Cn1cc2cc(-c3ccc4cc([C@@H](O)C5CC(F)(F)C5)sc4n3)cnc2n1` (single isomer, unassigned) [Compound B30S], the IC50 in assay [1] was found to be 0.35 nM; on 15-PGDH in A549 cells, 0.406 nM.

`O[C@@H](c1cc2ccc(-c3ccc4[nH]ncc4c3)nc2s1)C1CCOCC1` (single isomer, unassigned) [Compound B37R]: the IC50 in assay [1] is 8.74 nM; at 15-PGDH in A549 cells it was 61.7 nM.

For `Cn1cc2cc(-c3ccc4cc(C(O)C5COC5)sc4n3)cnc2n1` (stereo not shown) [Compound B28, (6-(2-methyl-2H-pyrazolo[3,4-b]pyridin-5-yl)thieno[2,3-b]pyridin-2-yl)(oxetan-3-yl)methanol], the IC50 came out at 0.463 nM in assay [1] and 1.07 nM on 15-PGDH in A549 cells.

Take `Cc1cn2cc(-c3ccc4cc([C@H](O)C5CC(F)(F)C5)sc4n3)ccc2n1` (single isomer, unassigned) [Compound B48R]: the IC50 in assay [1] was 0.4 nM; at 15-PGDH in A549 cells it was 1.77 nM.

For the molecule `Cn1cc2cc(-c3ncc4cc([C@]5(O)C[C@@H](C(F)F)C5)sc4n3)cnc2n1` [Compound C80C, cis-3-(difluoromethyl)-1-(2-(2-methyl-2H-pyrazolo[3,4-b]pyridin-5-yl)thieno[2,3-d]pyrimidin-6-yl)cyclobutanol], the concentration for half-maximal inhibition (IC50) in assay [1] is 0.771 nM; on 15-PGDH in A549 cells it was 1.26 nM.

Consider `Cc1c([C@@H](CO)C2CC(F)(F)C2)sc2nc(-c3cnc4nn(C)cc4c3)ccc12` (single isomer, unassigned) [Compound B93R], for which the IC50 in assay [1] was determined as 174 nM; at 15-PGDH in A549 cells, 245 nM.

Take `O[C@]1(c2cc3cnc(-c4cnc5nccn5c4)nc3s2)C[C@H](C(F)(F)F)C1` [Compound C124C, cis-1-(2-(imidazo[1,2-a]pyrimidin-6-yl)thieno[2,3-d]pyrimidin-6-yl)-3-(trifluoromethyl)cyclobutanol]: the IC50 was 2.01 nM in assay [1] and 15.9 nM on 15-PGDH in A549 cells.

On to `COC[C@H]1C[C@](O)(c2cc3ccc(-c4cnc5nn(C)cc5c4)nc3s2)C1` (single isomer, unassigned) [Compound C58C, cis-3-(methoxymethyl)-1-(6-(2-methyl-2H-pyrazolo[3,4-b]pyridin-5-yl)thieno[2,3-b]pyridin-2-yl)cyclobutanol], for which the IC50 in assay [1] came to 0.889 nM; on 15-PGDH in A549 cells, 0.519 nM.

In the case of `Cn1cc2cc(-c3ccc4cc([C@]5(O)C[C@@]6(CC6(F)F)C5)sc4n3)cnc2n1` (single isomer, unassigned) [Compound C88T, trans-1,1-difluoro-5-(6-(2-methyl-2H-pyrazolo[3,4-b]pyridin-5-yl)thieno[2,3-b]pyridin-2-yl)spiro[2.3]hexan-5-ol], the half-maximal inhibitory concentration (IC50) in assay [1] amounted to 0.347 nM; at 15-PGDH in A549 cells, 0.589 nM.

For the molecule `Cn1cc2cc(-c3ccc4cc([C@]5(O)C[C@@H](C6CC6)C5)sc4n3)cnc2n1` (single isomer, unassigned) [Compound C62C, cis-3-cyclopropyl-1-(6-(2-methyl-2H-pyrazolo[3,4-b]pyridin-5-yl)thieno[2,3-b]pyridin-2-yl)cyclobutanol], the IC50 in assay [1] came out at 0.366 nM; on 15-PGDH in A549 cells, 0.0321 nM.

As for `CC(C)n1cc2cc(-c3ccc4cc([C@H](O)C5CC(F)(F)C5)sc4n3)cnc2n1` (single isomer, unassigned) [Compound B64R], the results for the 50% inhibitory concentration (IC50) (in assay [1]; at 15-PGDH in A549 cells) were 0.325 nM and 0.311 nM, respectively.

In the case of `Cn1cc2cc(-c3ncc4cc([C@]5(O)C[C@@](C)(C#N)C5)sc4n3)cnc2n1` (single isomer, unassigned) [Compound C96C, cis-3-hydroxy-1-methyl-3-(2-(2-methyl-2H-pyrazolo[3,4-b]pyridin-5-yl)thieno[2,3-d]pyrimidin-6-yl)cyclobutanecarbonitrile], the IC50 amounted to 0.755 nM in assay [1] and 2.33 nM at 15-PGDH in A549 cells.

As to `O[C@]1(c2cc3cnc(-c4ccnnc4)nc3s2)C[C@H](C(F)(F)F)C1` [Compound C126C, cis-1-(2-(4-pyridazinyl)thieno[2,3-d]pyrimidin-6-yl)-3-(trifluoromethyl)cyclobutanol], the IC50 in assay [1] came out at 11.6 nM; on 15-PGDH in A549 cells it was 29 nM.

`CC(C)[C@@H](O)c1cc2ccc(-c3cnc4nn(C)cc4c3)nc2s1` (single isomer, unassigned) [Compound B24R]: the IC50 was determined as 0.258 nM in assay [1] and 0.614 nM on 15-PGDH in A549 cells.

`Cn1cnc(-c2ccc3cc([C@H](O)C4CC(F)(F)C4)sc3n2)cc1=O` (single isomer, unassigned) [Compound B49R]: the IC50 in assay [1] was 0.26 nM; on 15-PGDH in A549 cells, 0.723 nM.

One may read the IC50 as the concentration at which inhibition is half-maximal.
